The text below walks through data of US8948863B2, “Photokinetic ocular drug delivery methods and apparatus” (priority 2009, dated 2015).

Data set [1] in a line: Histological examination of Franz cell mounted sclera after PODD exposure. The arrangement: species or system ovine. The settings on record: MTX formulation, 60 minute exposure, 350 nm LED light. The procedure: Sclera samples were taken and placed in formalin as follows: Normal control sclera with no exposure to drug or light, Franz cell 60 minute control drug only exposure and Franz cell 60 minute exposure to both drug and 350 nm LED light. Fixed slides were evaluated for structural integrity and gross appearance by a pathologist blinded as to the origin of the sample tissue.
Normal control sclera with no exposure to drug or light, Franz cell 60 minute control drug only exposure and Franz cell 60 minute exposure to both drug and 350 nm LED light were taken and placed in formalin. Fixed slides were evaluated for structural integrity and gross appearance by a pathologist masked as to the origin of the sample tissue.

Data set [2] can be described thus: Franz cell sclera tissue permeation, PODD (pulsed LED light) vs passive controls. The settings on record: for levels of MTX recovered from Franz recipient cell: p<0.05 vs passive controls.
Description: A traditional “up and down” vertical Franz cell skin perfusion apparatus as described above was adapted and used for this sclera tissue permeation model. […] Two wavelengths of light were selected of this facilitated permeation study. Samples of the Franz recipient solution were taken at 15, 30 and 60 minutes of photokinetic exposure and passive controls and analyzed by HPLC.
Franz cells (PermeGear, Inc, Bethlehem Pa.) having an 11.28 mm diameter permeation area, 1.0 cm^2 were used in the MTX experiment. A photokinetic ocular drug delivery (PODD)-modified Franz cell testing device was configured so that it accommodated the placement of LEDs within the donor chamber. The cells were placed within an aluminum block heater 35.5° C. on a magnetic stir bar setup (Custom manufactured by PermeGear, Inc, Bethlehem Pa.).
Discrete wavelength LEDs were purchased from Roithner Lasertechnick GmbH, Vienna, Austria as follows: 351 nm, #RTL350-30; 370 nm, #RLS-UV370. Peak emitting wavelengths are ±10 nm at the 50% radiance output. The LEDs were driven by a square wave pulse generator built by the investigators for this study. The adjustable square wave pulse generator provided pulsed electrical energy set at 24 cycles per second (CPS) with a 50% pulse duration (ON 50%, OFF 50% of the time). Driver current to the LEDs was limited to or slightly below the manufacturers specified drive current level to avoid exogenous heat generation. […] A donor cell contains the test drug (in this example, methotrexate (MTX)) in a solvent formulation. The recipient cell is filled with a balance salt solution. Samples for chemical analysis are taken from the side arm 27 of the Franz apparatus as discussed above. Control cells are set up the same, but without the LED. LEDs are driven by a square wave pulse generator (not shown) at a voltage slightly less than the manufacture's specified voltage.
Ovine eyes were procured by enucleation within one hour after euthanasia and placed in tissue culture medium with antibiotics and antimycotics and refrigerated at 4° C. Sclera tissue was dissected from the eyes and placed between the donor and recipient chambers of the Franz apparatus. Sclera was stored for a maximum of 30 hours in the tissue culture at 4° C. before the start of the experiment.
Methotrexate (MTX; (4-Amino-10-methylfolic acid hydrate); available from Sigma-Aldrich Corp., St. Louis, Mo.) was dissolved in a permeation enhancement carrier of water, 30% propylene glycol, 5% Ethyl Lactate, 0.1% Azone, and 0.75% hyaluronic acid as a gelling agent, with 0.1% neolone 850 as a preservative. An infinite donor sink model was used wherein 0.75 grams of the drug formulation (1.875 mg of each) was placed in the Franz donor cells. Hanks isotonic salt solution served as the Franz recipient cell fluid.
HPLC analysis was performed according to a method developed in our lab. Briefly, a Beckman Coulter system consisting of 125 pumps, 508 auto sampler and 168 diode array detector was used with an XTerra RP-C18, 150×40 mm, 3 μm column. The analytes were eluted with a gradient mobile phase from 25-30% Methanol in HPLC grade water with 0.1% Trifluoroacetic Acid (TFA) and flow rate of 0.7 ml/min. 32 Karat™ software (Beckman Coulter, Inc.) was used for acquisition of chromatograms.
The Franz recipient cell balanced salt solution was analyzed by the HPLC method for MTX concentration.
Data set [3] can be described thus: Photokinetic transdermal permeation study. Type of data set: in vitro ADME, human. Conditions: similar photokinetic conditions. An excerpt: Scleral tissue is more permeable than human skin. The practical upper molecular weight limit with the PODD system is unknown and may be determined by the specific molecular configuration rather than molecular weight per se.

The conditions of data set [4]: rabbit.
Excerpt: Exogenous human insulin can be differentiated from the endogenous rabbit insulin; the human insulin FITC (fluorescein isothiocyanate) fluorescent tag further allows for tracking of the drug within the tissues.
In this series, rabbits were fitted with transscleral photokinetic device, such as shown in FIG. 1 of this disclosure, for one hour. […] Images were taken of the posterior optic disc, the area where the retina, optic nerve and blood vessels come together on the posterior segment of the eye.

In the case of `CN(Cc1cnc2nc(N)nc(N)c2n1)c1ccc(C(=O)N[C@@H](CCC(=O)O)C(=O)O)cc1` [MTX, 4-Amino-10-methylfolic acid hydrate], in data set [1], the “histological examination, PODD exposure compared to passive control and normal sclera” value is on record as “no differences between the samples”; the “structural integrity of the sclera” value was “grossly intact and undamaged”. In data set [2] (PODD 350 nm group, 24 CPS, 30 and 60 minute time points), the “levels of MTX recovered from Franz recipient cell” value is given as “significant”. Moreover, the “levels of MTX recovered from Franz recipient cell” value in data set [2] (PODD 370 nm group, 24 CPS, 15, 30 and 60 minute time points) is reported as “significant”. In addition, the “total MTX flux (compared with the therapeutic level)” value in data set [2] (PODD, up to 60 minutes, 1.0 cm^2 ovine sclera) is below 400 µg. For the same compound, the “flux rate, 370 nm group compared to the 350 nm group” value in data set [2] (all time points (15, 30, 60 minutes), 24 CPS) was “much higher flux rate”. The “MTX permeation through the scleral tissue, PODD cells” value in data set [2] (both wavelengths of light tested (350 nm and 370 nm), 24 CPS, vs passive controls) is on record as “improvement”.
In the case of hyaluronic acid, the “flux rates through intact human skin” value in data set [3] was “significant flux rates”.
Consider “FITC-labeled human insulin: human insulin modified at the N-terminus of the B-chain with an FITC conjugate/tag, 5733 Daltons, Invitrogen”, for which the “fluorescence in the optic disc, passive permeation” value in data set [4] is reported as “did not show fluorescence”. Also, in data set [4] (in vivo), the “fluorescence image of the optic disc after 1 hour of PODD” value is “reached the posterior segment of the rabbit's eye” and the “fluorescence, contralateral eye” value was “no fluorescence”.
